The assay addresses T1, Accessory gene regulator protein A (Staphylococcus aureus, UniProt P0A0I7).
T1 sequence (P0A0I7 whole entry): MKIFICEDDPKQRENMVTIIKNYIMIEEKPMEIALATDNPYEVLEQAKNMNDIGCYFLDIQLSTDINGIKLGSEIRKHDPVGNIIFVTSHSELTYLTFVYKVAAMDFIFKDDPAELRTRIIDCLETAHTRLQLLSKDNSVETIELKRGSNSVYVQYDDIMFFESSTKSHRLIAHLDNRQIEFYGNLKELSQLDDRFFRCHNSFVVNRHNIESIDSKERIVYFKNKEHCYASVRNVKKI
In words: Inhibition of Staphylococcus aureus RN6390B Agr-mediated RNA3 promoter activation measured up to 6 hrs by Northern blot analysis.

Molecules are shown by their SMILES. pIC50: −log10 of the molar value.

With `CCCCCCCCCC(=O)CC(=O)N[C@H]1CCOC1=O`, the pIC50 was 5.22.

One may read the pIC50 as −log10 of the IC50, conventionally taken in molar units. A lower pIC50 goes with a high IC50.

These data come from BindingDB's records for doi:10.1021/jm3014635 (University of Nottingham, 2013).
